Reference: US10463644B2, “Uses of sesquiterpene lactone compounds and their derivatives in drugs preparation” (ACCENDATECH, priority 2013, dated 2019)

Legend:
Format in all cases: in vivo
[1] = test system: PGE2 secreted by synoviocyte; assay: Content of PGE2 in culture supernatant of synoviocyte of RA model rats given test compound; conditions: rat RA model, dose 30 mg/kg.2d; normal control 8.34 ± 1.29, NaCl 32.44 ± 10.32
Excerpt: (§1) Take Compound 1-50 prepared as per the method according to the present invention and employ the method provided in Reference to prepare model, group drugs and prepare culture supernatant of rat synoviocyte.
(§2) Employ the method provided in Reference to investigate the effects of the test compounds on the synoviocyte to secrete TNF-α and PGE2. Employ the method provided in Reference to investigate the effects of the test compounds on the synoviocyte to secrete IL-1β.
(§3) The experimental data of the test compound 1-50 at a dose of 30 mg/kg.2d as well as the normal control and NaCl group are as follows: […]

[2] = test system: TNF-α secreted by synoviocyte; assay: Content of TNF-α in culture supernatant of synoviocyte of RA model rats given test compound; conditions: rat RA model, dose 30 mg/kg.2d; normal control 0.38 ± 0.027, NaCl 0.74 ± 0.098
Excerpt: as §1, §2, §3

[3] = test system: IL-1β secreted by synoviocyte; assay: Content of IL-1β in culture supernatant of synoviocyte of RA model rats given test compound; conditions: rat RA model, dose 30 mg/kg.2d; normal control 0.16 ± 0.034, NaCl 0.49 ± 0.136
Excerpt: as §1, §2, §3

Compound | Content of PGE2 in culture supernatant of synoviocyte (x ± s) [1] [ng/mL] | Content of TNF-α in culture supernatant of synoviocyte (x ± s) [2] [ng/mL] | Content of IL-1β in culture supernatant of synoviocyte (x ± s) [3] [ng/mL]
COC(=O)c1cn(C[C@@H]2C(=O)O[C@H]3[C@H]2CCC2(CC2)[C@@H]2CCC4(CC4)[C@H]32)nn1 [Compound 44] | 22.14 ± 2.87 | 0.54 ± 0.071 | 0.35 ± 0.069
CC(O)c1cn(C[C@@H]2C(=O)O[C@H]3[C@H]2CCC2(CC2)[C@@H]2CCC4(CC4)[C@H]32)nn1 (stereo partly drawn) [Compound 45] | 23.26 ± 3.49 | 0.49 ± 0.056 | 0.38 ± 0.039
